Assays:
[1] = target: wtDR1 (Homo sapiens, UniProt P01903+P01911, A100R/D57E/F55L/F60I/F76Y/I96L/L162R/M171V/P40L/Q125E/R42F/V115G/Y59C); assay type: binding
[2] = target: soluble wild-type HLA-DR1 (empty, no added peptide) (human); test: intrinsic tryptophan fluorescence

soluble HLA-DM, sequence (P28067 27-233): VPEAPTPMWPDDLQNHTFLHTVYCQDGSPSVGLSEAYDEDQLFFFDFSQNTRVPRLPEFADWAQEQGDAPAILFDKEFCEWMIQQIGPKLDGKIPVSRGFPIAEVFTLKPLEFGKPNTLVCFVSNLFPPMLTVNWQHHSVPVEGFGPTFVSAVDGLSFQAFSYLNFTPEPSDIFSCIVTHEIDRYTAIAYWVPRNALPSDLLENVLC
soluble HLA-DM, sequence (P28068 19-218): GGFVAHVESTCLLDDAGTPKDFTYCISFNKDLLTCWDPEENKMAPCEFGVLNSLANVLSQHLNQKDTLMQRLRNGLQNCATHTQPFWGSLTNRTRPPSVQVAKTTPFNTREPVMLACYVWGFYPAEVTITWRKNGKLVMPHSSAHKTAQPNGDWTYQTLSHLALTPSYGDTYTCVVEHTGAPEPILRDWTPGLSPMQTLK

Row | Substance | DR1 binding of control peptide [1] | increase of tryptophan fluorescence on mixing [2] [%]
1 | CLSPFPFDL | non–DR1-binding | –
2 | soluble HLA-DM (from UniProt P28067;P28068) (complex) | – | 10 to 12
